Test results as given in PubChem BioAssay (NCI).
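Grown in 96-well plates, cells were treated for 48 hours with each compound at five concentrations. Insufficient inhibition: endpoint recorded as highest concentration tested. At the TGI there is no net growth.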

Assays:
Assay in all cases: DTP human tumour cell line panel, 48 h
786-0 renal = test system: 786-0 renal
A498 renal = test system: A498 renal
A549 NSCLC = test system: A549 NSCLC
ACHN renal = test system: ACHN renal
CAKI-1 renal = test system: CAKI-1 renal
CCRF-CEM leukemia = test system: CCRF-CEM leukemia
COLO 205 colon = test system: COLO 205 colon
DU-145 prostate = test system: DU-145 prostate
EKVX NSCLC = test system: EKVX NSCLC
HCC-2998 colon = test system: HCC-2998 colon
HCT-116 colon = test system: HCT-116 colon
HCT-15 colon = test system: HCT-15 colon
HL-60(TB) leukemia = test system: HL-60(TB) leukemia
HOP-62 NSCLC = test system: HOP-62 NSCLC
HS 578T breast = test system: HS 578T breast
HT29 colon = test system: HT29 colon
IGROV1 ovarian = test system: IGROV1 ovarian
K-562 leukemia = test system: K-562 leukemia
KM12 colon = test system: KM12 colon
LOX IMVI melanoma = test system: LOX IMVI melanoma
M14 melanoma = test system: M14 melanoma
MALME-3M melanoma = test system: MALME-3M melanoma
MCF7 breast = test system: MCF7 breast
MDA-MB-231 breast = test system: MDA-MB-231 breast
MDA-MB-435 = test system: MDA-MB-435
MDA-N = test system: MDA-N
MOLT-4 leukemia = test system: MOLT-4 leukemia
NCI-H226 lung = test system: NCI-H226 lung
NCI-H23 lung = test system: NCI-H23 lung
NCI-H460 lung = test system: NCI-H460 lung
NCI/ADR-RES ovarian = test system: NCI/ADR-RES ovarian
OVCAR-4 ovarian = test system: OVCAR-4 ovarian
OVCAR-5 ovarian = test system: OVCAR-5 ovarian
OVCAR-8 ovarian = test system: OVCAR-8 ovarian
PC-3 prostate = test system: PC-3 prostate
RPMI-8226 leukemia = test system: RPMI-8226 leukemia
SF-268 CNS = test system: SF-268 CNS
SF-295 CNS = test system: SF-295 CNS
SF-539 CNS = test system: SF-539 CNS
SK-MEL-2 melanoma = test system: SK-MEL-2 melanoma
SK-MEL-28 melanoma = test system: SK-MEL-28 melanoma
SK-MEL-5 melanoma = test system: SK-MEL-5 melanoma
SK-OV-3 ovarian = test system: SK-OV-3 ovarian
SN12C renal = test system: SN12C renal
SNB-19 CNS = test system: SNB-19 CNS
SNB-75 CNS = test system: SNB-75 CNS
SR leukemia = test system: SR leukemia
SW-620 colon = test system: SW-620 colon
T-47D breast = test system: T-47D breast
TK-10 renal = test system: TK-10 renal
U251 CNS = test system: U251 CNS
UACC-257 melanoma = test system: UACC-257 melanoma
UACC-62 melanoma = test system: UACC-62 melanoma
UO-31 renal = test system: UO-31 renal
BT-549 breast = test system: BT-549 breast
HOP-92 NSCLC = test system: HOP-92 NSCLC
NCI-H522 lung = test system: NCI-H522 lung
OVCAR-3 ovarian = test system: OVCAR-3 ovarian
RXF 393 renal = test system: RXF 393 renal

Work on `O=C(CC(C(=O)c1cccs1)c1cccs1)c1ccccc1Cl` (stereo unspecified) yielded a TGI (786-0 renal) of over 100 µM, a TGI (A498 renal) of over 100 µM and a TGI (A549 NSCLC) of over 100 µM. It also gave a TGI (ACHN renal) of over 100 µM, a TGI (CAKI-1 renal) of over 100 µM and a TGI (CCRF-CEM leukemia) of over 100 µM. It also gave a TGI (COLO 205 colon) of over 100 µM, a TGI (DU-145 prostate) of over 100 µM and a TGI (EKVX NSCLC) of over 100 µM. It also gave a TGI (HCC-2998 colon) of over 100 µM, a TGI (HCT-116 colon) of over 100 µM and a TGI (HCT-15 colon) of over 100 µM. The TGI (HL-60(TB) leukemia) was over 100 µM, the TGI (HOP-62 NSCLC) was over 100 µM and the TGI (HS 578T breast) was over 100 µM. It also gave a TGI (HT29 colon) of over 100 µM, a TGI (IGROV1 ovarian) of over 100 µM and a TGI (K-562 leukemia) of over 100 µM. It also gave a TGI (KM12 colon) of over 100 µM, a TGI (LOX IMVI melanoma) of over 100 µM and a TGI (M14 melanoma) of over 100 µM. It also gave a TGI (MALME-3M melanoma) of over 100 µM, a TGI (MCF7 breast) of over 100 µM and a TGI (MDA-MB-231 breast) of over 100 µM. For the same compound, the TGI (MDA-MB-435) was over 100 µM, the TGI (MDA-N) was over 100 µM and the TGI (MOLT-4 leukemia) was over 100 µM. For the same compound, the TGI (NCI-H226 lung) was over 100 µM, the TGI (NCI-H23 lung) was over 100 µM and the TGI (NCI-H460 lung) was over 100 µM. The TGI (NCI/ADR-RES ovarian) was over 100 µM, the TGI (OVCAR-4 ovarian) was over 100 µM and the TGI (OVCAR-5 ovarian) was over 100 µM. It also gave a TGI (OVCAR-8 ovarian) of over 100 µM, a TGI (PC-3 prostate) of over 100 µM and a TGI (RPMI-8226 leukemia) of over 100 µM. It also gave a TGI (SF-268 CNS) of over 100 µM, a TGI (SF-295 CNS) of over 100 µM and a TGI (SF-539 CNS) of over 100 µM. For the same compound, the TGI (SK-MEL-2 melanoma) was over 100 µM, the TGI (SK-MEL-28 melanoma) was over 100 µM and the TGI (SK-MEL-5 melanoma) was over 100 µM. It also gave a TGI (SK-OV-3 ovarian) of over 100 µM, a TGI (SN12C renal) of over 100 µM and a TGI (SNB-19 CNS) of over 100 µM. It also gave a TGI (SNB-75 CNS) of over 100 µM, a TGI (SR leukemia) of over 100 µM and a TGI (SW-620 colon) of over 100 µM. The TGI (T-47D breast) was over 100 µM, the TGI (TK-10 renal) was over 100 µM and the TGI (U251 CNS) was over 100 µM. For the same compound, the TGI (UACC-257 melanoma) was over 100 µM, the TGI (UACC-62 melanoma) was over 100 µM and the TGI (UO-31 renal) was over 100 µM.

`N=C(N)SCc1cc(Cl)cc(Cl)c1O` was tested, and the TGI (786-0 renal) was 32.2 µM, the TGI (A498 renal) was 51.7 µM and the TGI (A549 NSCLC) was 53.9 µM. The TGI (ACHN renal) was 36.4 µM, the TGI (BT-549 breast) was 36.6 µM and the TGI (CAKI-1 renal) was 33.3 µM. It also gave a TGI (CCRF-CEM leukemia) of 35.6 µM, a TGI (COLO 205 colon) of 33 µM and a TGI (DU-145 prostate) of 36.2 µM. The TGI (EKVX NSCLC) was 42.8 µM, the TGI (HCC-2998 colon) was 31.9 µM and the TGI (HCT-116 colon) was 29.8 µM. It also gave a TGI (HCT-15 colon) of 46.8 µM, a TGI (HL-60(TB) leukemia) of 21.1 µM and a TGI (HOP-62 NSCLC) of 38 µM. The TGI (HOP-92 NSCLC) was 35.1 µM, the TGI (HS 578T breast) was 72 µM and the TGI (HT29 colon) was 32.1 µM. It also gave a TGI (IGROV1 ovarian) of 38.2 µM, a TGI (K-562 leukemia) of 41.5 µM and a TGI (KM12 colon) of 33.7 µM. It also gave a TGI (LOX IMVI melanoma) of 36.2 µM, a TGI (M14 melanoma) of 42.1 µM and a TGI (MALME-3M melanoma) of 72.7 µM. The TGI (MCF7 breast) was 60.1 µM, the TGI (MDA-MB-231 breast) was 30.5 µM and the TGI (MDA-MB-435) was 38 µM. The TGI (MDA-N) was 33.1 µM, the TGI (MOLT-4 leukemia) was 50.8 µM and the TGI (NCI-H226 lung) was 43.1 µM. It also gave a TGI (NCI-H23 lung) of 40.4 µM, a TGI (NCI-H460 lung) of 36.2 µM and a TGI (NCI-H522 lung) of 33.4 µM. The TGI (NCI/ADR-RES ovarian) was 89.3 µM, the TGI (OVCAR-3 ovarian) was 31.4 µM and the TGI (OVCAR-4 ovarian) was 51.6 µM. For the same compound, the TGI (OVCAR-5 ovarian) was 40.3 µM, the TGI (OVCAR-8 ovarian) was 38.3 µM and the TGI (PC-3 prostate) was 43.9 µM. It also gave a TGI (RPMI-8226 leukemia) of 47.5 µM, a TGI (RXF 393 renal) of 46.8 µM and a TGI (SF-268 CNS) of 58.3 µM. It also gave a TGI (SF-295 CNS) of 55.7 µM, a TGI (SF-539 CNS) of 22.1 µM and a TGI (SK-MEL-2 melanoma) of 39.6 µM. For the same compound, the TGI (SK-MEL-28 melanoma) was 46.4 µM, the TGI (SK-MEL-5 melanoma) was 31.9 µM and the TGI (SK-OV-3 ovarian) was over 100 µM. It also gave a TGI (SN12C renal) of 36.6 µM, a TGI (SNB-19 CNS) of 56.8 µM and a TGI (SW-620 colon) of 49.4 µM. For the same compound, the TGI (T-47D breast) was 51.8 µM, the TGI (TK-10 renal) was 35.4 µM and the TGI (U251 CNS) was 30 µM. The TGI (UACC-257 melanoma) was 31.6 µM, the TGI (UACC-62 melanoma) was 34 µM and the TGI (UO-31 renal) was 32.4 µM.
